Test results taken from PubChem BioAssay AID179 (DTP/NCI, 2004).
pEC50, pIC50: −log10 of the molar value. Values joined by “and” are separate entries in the source; they are usually repeats but may differ in a detail not shown here. Equal entries are not always repeated. Active and inactive are the calls of the source.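 How the source made its calls: active means compounds giving half or more protection of infected cells from virus-caused growth loss, again on retest; inactive means the rest.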 Where a SMILES comes first, the peptide text is derived from it.

System: CEM cells HIV-1 protection, formazan growth assay
Test: NCI AIDS Antiviral Assay
Settings: for pIC50: measured here: growth of uninfected CEM cells
Procedure, shortened: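 Human CEM cells, uninfected and HIV-1-infected, received five drug concentrations, and growth was read by soluble formazan assay. Compounds giving at least 50% protection were retested; reproducible 100% protection defined confirmed active.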

Structure (SMILES)	pEC50	pIC50	outcome
Cc1ccc2c(c1)[n+]([O-])c(N)n[n+]2[O-]	< 3.70	4.72	–
C=C(C)[C@H]1Cc2c(ccc3c2O[C@@H]2COc4cc(OC)c(OC)cc4[C@@H]2C3=O)O1	< 5.70	7.32	–
CC(=O)OCC1OC(n2c(-c3ccc(Cl)cc3)ccc(C#N)c2=S)C(OC(C)=O)C(OC(C)=O)C1OC(C)=O (configuration not stated)	< 3.70	< 3.70	–
COC(=O)c1ccc(NCc2cc(O)ccc2O)cc1O	< 3.70	4.98	–
Cc1csc2nc3c(cnn3C)c(=S)n12	< 3.70	4.41	–
C=CCC1(C(=O)OC(C)(C)C)C(OC)=C(C(=O)OC(C)(C)C)C2C1C(C(=O)OC(C)(C)C)=C(OC)C2(CC=C)C(=O)OC(C)(C)C (configuration not stated)	–	–	inactive
O=c1[nH]nc(-c2ccccc2)n1/N=C\CC/C=N\n1c(-c2ccccc2)n[nH]c1=O	–	–	inactive
CC1=NC(C)(C)N(O)C1(C)C	< 3.70	< 3.70	–
CNC(=O)N1CCN(C(=O)NC)CCN(C(=O)NC)CC1	< 3.70	< 3.70	–
CC1=N/C(=C\c2cccc(C#N)c2)C(=O)O1	< 3.77	4.01	–
CC(=O)c1cc(I)c(O)c2ncccc12	< 4.10	5.84	–
COc1ccc2nc3cc(Cl)ccc3c(NCCNC(=O)Cn3c(=O)n(C)c(=O)c4c3nc3c(c(=O)n(C)c(=O)n3C)[n+]4[O-])c2c1	< 4.00	4.40	–
CCC1C(C(=O)Nc2ccccc2C)=C(C)NC(C)=C1c1ccccc1C (configuration not stated)	< 3.73	< 3.73	–
CN(Cc1ccccc1)C(=NC#N)N(C)Cc1ccccc1	< 3.77	3.89	–
CCCCC[C@@H]1CCCC2C1CCC(CCCCCO)N2C(=O)OCC(Cl)(Cl)Cl (some centres not stated)	–	–	inactive
CCCCCCCCCCCCCCCCCC(=O)NCC(COP(=O)([O-])OCC[N+](C)(C)C)OC (configuration not stated)	–	–	inactive
O=C1Nc2cc3c(cc2C(=O)N2C/C(=N/O)CC12)OCO3 (configuration not stated)	< 3.49	3.72	–
COc1ccc(C2c3cc(OC)c(OC)cc3C(Cc3ccc([N+](=O)[O-])cc3)C2c2ccc([N+](=O)[O-])cc2)cc1OC (configuration not stated)	< 5.60	< 5.60	–
O=c1c2ccccc2sc2nc(CCl)nn12	< 3.45	4.24	–
O=C(O)c1cc2cc3c(cc2c2ccccc12)OCO3	< 3.31	3.55	–
COC(=O)c1ccccc1NC(c1ccccn1)c1ccc2cccnc2c1O (configuration not stated)	< 4.59	5.88	–

Structure (SMILES)	pEC50	pIC50	outcome
O=C1NC2C(=O)N(Cc3ccccc3)C(=O)C2N1 (configuration not stated)	< 4.53	< 4.53	–
CCOC(=O)c1ccc(N2C(=O)/C(=C/c3ccc(N(CCC#N)CCC#N)cc3)N=C2c2cc([N+](=O)[O-])ccc2Cl)cc1	< 4.92	< 4.92	–
CC(C)(C)C1=CC(=O)C(Cl)(C(C)(C)C)C(Cl)C1=O (configuration not stated)	< 4.70	5.94	–
Cc1ccc(S(=O)(=O)n2c3c(c4ccccc42)CCN2CCC(Br)C[C@@H]32)cc1 (some centres not stated)	< 3.70	4.68	–
CC(C)CC(N)C(=O)NC(CC(=O)O)C(=O)NC(CCCCN)C(=O)NC(C)C(=O)NC(CO)C(=O)NC(Cc1ccc(O)cc1)C(=O)NC(CO)C(=O)NC(C(=O)NC(CC(N)=O)C(=O)O)C(C)O (configuration not stated) (H-LDKASYSTN-OH; configuration not given here)	< 4.30	< 4.30	–
CCCc1cc(=O)oc2c3c(cc(OC)c12)O[C@H](C)C(C)[C@H]3O (some centres not stated)	< 3.70	4.29	–
CC(C)C(/C=C/c1ccc(Cl)c(Cl)c1)=N\NC(=O)N/N=C(/C=C/c1ccc(Cl)c(Cl)c1)C(C)C	< 3.70	< 3.70	–
O=Nc1c2n[nH]c1CCCCCCCCC2	< 3.51	4.35	–
O=C1CC(=O)NC(=NN2C(=O)/C(=C/c3ccc(Cl)c(Cl)c3)N=C2c2ccccc2)N1	< 3.70	4.66	–
O=C1CN=C(c2ccc[nH]2)c2cc(Cl)ccc2N1	5.61	5.40	–
O=C(c1nc2ccccc2[nH]c1=O)C(O)c1ccccc1 (configuration not stated)	< 3.33	3.82	–
CC(=NNC(=S)Nc1ccc(C)cc1)c1cccc(C(C)=NNC(=S)Nc2ccc(C)cc2)n1	< 3.70	4.82	–
O=C1C2=C(c3ccccc31)C(c1ccccc1)N1C(=O)CSC1=N2 (configuration not stated)	< 4.11	4.46	–
N#C/C(=C\c1c(Cl)cccc1Cl)c1nc(-c2ccc(Cl)cc2)cs1	< 3.70	4.14	–
O=C(CNc1ccccc1[N+](=O)[O-])Nn1cnc2ccc(S(=O)(=O)Nc3ccccc3[N+](=O)[O-])cc2c1=O	< 3.70	< 3.70	–
COc1c(C)c(C/C=C(\C)CCCCO[Si](C(C)C)(C(C)C)C(C)C)c(OC)c2ccccc12	< 3.70	4.27	–
CCOP(=O)(OCC)C(NC(=O)OCC(Cl)(Cl)Cl)n1nnc(C(=O)OC)c1C(=O)OC (configuration not stated)	< 3.70	< 3.70	–
COC(=O)C(=O)C(C(=O)C=C(C)C)C(=O)C(=O)Nc1ccc(C)cc1C (configuration not stated)	< 4.00	< 4.00	–
C[Si](C)(C)C1=C([Si](C)(C)C)C(Cl)(Cl)C1=O	< 4.70	5.40	–
C[Si](C)(C)[C@@]1([Se]c2ccccc2)CC[C@@H]1C(=O)c1ccccc1	< 4.87	< 4.87	–
O=C1Cc2ccccc2CCc2ccccc21	3.87	< 3.70	–

Structure (SMILES)	pEC50	pIC50	outcome
CCOP(=O)(C/C(=N/NC(C)(C)C)C(=O)Nc1nc2ccc(C)cc2s1)OCC	< 4.23	< 4.23	–
Cc1ccc2c(c1)-c1nc(N)c(C#N)c(-c3ccc(Cl)cc3)c1CCS2(=O)=O	< 3.70	4.53	–
CC#N.CC#N.COC(=O)[C@@H]1CN(C(C)=O)C(=O)[N-]1.COC(=O)[C@@H]1CN(C(C)=O)C(=O)[N-]1.COC(=O)[C@@H]1CN(C(C)=O)C(=O)[N-]1.COC(=O)[C@@H]1CN(C(C)=O)C(=O)[N-]1.[Rh+2].[Rh+2]	< 3.70	< 3.70	–
N#CC(C#N)=Cc1ccc2c(c1)OC(Cl)O2 (configuration not stated)	–	–	inactive
NS(=O)(=O)c1cc2c(cc1Cl)NC(C(=O)c1cc(=O)c3ccc(O)cc3o1)=NS2(=O)=O	< 3.29	< 3.29	–
CSc1cc(=O)[nH]c(=O)[nH]1	< 3.70	< 3.70	–
Cc1ccc(/C=N/Nc2ccc3ccccc3n2)s1	< 3.70	4.67	–
O=C1c2cscc2C(=O)c2cscc21	< 5.70	6.47	–
CCCCCCCCCCCCCCCCc1c(C(=O)OC)nc(NN)[nH]c1=O	< 5.03	< 5.03	–
COc1cc(N)c2[nH]c3c(C)ccc(C)c3c2c1	< 4.52	< 4.52	–
CCOC(=O)c1nc2ccc(C(F)(F)F)cc2nc1Oc1cc(OC)cc(OC)c1	< 3.70	< 3.70	–
CCOc1ccc(N=Nc2c(-c3ccccc3)nn(C(=O)CC(=O)Nc3cccc(C)c3)c2-c2ccccc2)cc1	< 4.32	< 4.32	–
COc1cc(OC)c2c(O)c3c(cc2c1)CC(C)(C)CC3=O	< 5.70	5.86	–
O=c1c2ccccc2nc(-c2cccc(Cl)c2)n1NCC1(O)OCC(O)C(O)C1O (configuration not stated)	–	–	inactive
CCCNCCOc1nc(Cl)c(Cl)cc1Cl	< 3.70	3.90	–
CC(=O)OC12CC[N+]3(C)CCCCC3C1=Nc1ccccc12 (configuration not stated)	< 3.23	3.32	–
NC(=O)N=Nc1c2ccccc2n2[nH]ccc12	< 3.70	4.09	–
CC(=O)OC1(C)C2c3ccccc3C(c3ccccc32)C1(C)C (configuration not stated)	< 4.07	< 4.07	–
Nc1ccc2ncc(NCc3ccc(F)cc3)nc2c1	< 3.87	4.16	–
N#CC(c1ccccn1)c1nc2ccccc2[nH]1 (configuration not stated)	< 5.07	< 5.07	–
Cc1ccc(=O)n(Cc2ccccc2)n1	< 2.90	3.04	–

Structure (SMILES)	pEC50	pIC50	outcome
O=C(O)[C@@H]1OCCOCCO[C@@H](C(=O)O)[C@H](C(=O)O)OCCOCCO[C@H]1C(=O)O	< 3.25	< 3.25	–
CNC(=O)N1CN(c2ccccc2)C2(CCN(Cc3ccccc3)CC2)C1=O	3.71	< 3.70	–
NNC(=O)N/N=C1\CNC(=O)C(=O)C1c1nc2ccccc2s1 (configuration not stated)	–	–	inactive
CCOC(=O)NC(=O)c1cn(CCN2CCNCC2)c(=O)[nH]c1=O	–	–	inactive
Oc1ccc(C(O)(c2ccccc2)c2ccccc2)cc1	< 4.17	4.38	–
Cc1cc([N+](=O)[O-])c2c(c1)P(=O)(O)c1cc(C)cc([N+](=O)[O-])c1O2	< 3.70	< 3.70	–
O=c1oc2ccccc2c2nc3c([N+](=O)[O-])cccc3cc12	< 3.70	5.09	–
CC(=O)Oc1ccc2cc(Oc3cc(Cl)c(Cl)cc3Cl)c(=O)oc2c1	< 3.70	4.03	–
Cn1c(=O)c2c(=O)c(=O)[nH][nH]c2n(C)c1=O	< 3.70	< 3.70	–
C(=C\c1ccc2ccccc2c1Nc1ccccc1)/c1ccccc1	–	–	inactive
CC(C)CC(N)C(=O)NC(CC(=O)O)C(=O)NC(CCCCN)C(=O)NC(C)C(=O)NC(CO)C(=O)NC(Cc1ccc(O)cc1)C(=O)NC(CO)C(=O)NC(C(=O)NC(CC(N)=O)C(=O)NC(Cc1cnc[nH]1)C(=O)NC(CC(C)C)C(=O)O)C(C)O (configuration not stated) (H-LDKASYSTNHL-OH; configuration not given here)	< 4.30	< 4.30	inactive
COc1ccc(CC2=CC(=O)C(=O)C=C2C)cc1	< 4.25	4.52	–
N[C@@H]1c2c(Br)sc(Br)c2C(=O)[C@H]1Br	< 3.70	4.63 and 4.57	–
COc1ccccc1C(C(=O)NC1CN2CCC1CC2)c1ccsc1 (configuration not stated)	< 3.70	3.82	–
CO[C@@H]1CCC=C(C=O)O1	–	–	inactive
CC(C)=CCC1(c2ccccc2)Oc2cccnc2-n2cccc2C1=O (configuration not stated)	< 3.70	4.54	–
O=[N+]([O-])c1nccn1COCCO	< 2.88	< 2.88	–
C/C(=N\N(C)C)C(CN(C)C)C(c1ccccc1)c1c(O)c2ccccc2oc1=O (configuration not stated)	< 4.00	4.04	–
CC1CCc2[nH]nc(CC3CC(=O)NC(=O)C3)c2C1 (configuration not stated)	< 3.70	< 3.70	–
CC(=O)Nc1ccc(C2C(C(=O)Nc3ccccc3C)=C(C)NC(C)=C2C(=O)Nc2ccccc2C)cc1	< 4.15	< 4.15	–
